PubChem BioAssay (NCI)
“And” between values parts separate entries of the source, which are not always exact repeats. Identical values can stand only once.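 Method: 48-hour compound exposure of cells in 96-well plates, five concentrations, linear interpolation of endpoints. The concentration for 50% growth inhibition is given as GI50. TGI is the concentration that stops growth completely.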 Where a SMILES comes first, the peptide text is derived from it. [ ]: non-standard residue; d: D form. The star is where a group is joined. ξ: configuration not given here. ξF = NC(Cc1ccccc1)C(=O)O; Cbz = O=C(OCc1ccccc1)*; Aib = CC(C)(N)C(=O)O

How the values were obtained:
Assay in all cases: NCI tumour cell line growth inhibition, 48 h
NCI-H226 lung = test system: NCI-H226 lung
MCF7 breast = test system: MCF7 breast
DU-145 prostate = test system: DU-145 prostate
OVCAR-4 ovarian = test system: OVCAR-4 ovarian
SK-OV-3 ovarian = test system: SK-OV-3 ovarian
MDA-MB-435 = test system: MDA-MB-435
SNB-75 CNS = test system: SNB-75 CNS
HOP-62 NSCLC = test system: HOP-62 NSCLC
KM12 colon = test system: KM12 colon
P388/ADR leukemia = test system: P388/ADR leukemia

COc1cc(/C=N/c2nc3cc4sc(/N=C/c5cc(OC)c(OC)c(OC)c5)nc4cc3s2)cc(OC)c1OC
TGI (NCI-H226 lung): > 100 µM
TGI (MCF7 breast): > 100 µM
TGI (DU-145 prostate): > 100 µM
TGI (OVCAR-4 ovarian): > 100 µM
TGI (SK-OV-3 ovarian): > 100 µM
TGI (MDA-MB-435): > 100 µM
TGI (SNB-75 CNS): > 100 µM
TGI (HOP-62 NSCLC): > 100 µM
TGI (KM12 colon): > 100 µM

CC1C(=O)CC(c2cccs2)N(N=O)C1c1cccs1 (centres undefined)
TGI (NCI-H226 lung): > 100 µM
TGI (MCF7 breast): 88.5 µM
TGI (P388/ADR leukemia): 40.8 µM
TGI (OVCAR-4 ovarian): > 100 µM
TGI (SK-OV-3 ovarian): > 81.2 µM
TGI (SNB-75 CNS): > 74 µM
TGI (HOP-62 NSCLC): > 100 µM
TGI (KM12 colon): > 100 µM

CCCCCCCCCCCCCC1=C(O)C(=O)C(CC2=C(O)C(=O)C(CCCCCCCCCCCCC)=C(O)C2=O)=C(O)C1=O
TGI (NCI-H226 lung): > 100 µM
TGI (MCF7 breast): > 100 µM
TGI (DU-145 prostate): > 100 µM
TGI (SK-OV-3 ovarian): > 100 µM
TGI (SNB-75 CNS): 83 µM
TGI (KM12 colon): > 100 µM

CCCCN1C(=O)c2c(Br)sc(Br)c2C1=O
TGI (NCI-H226 lung): > 100 µM
TGI (MCF7 breast): > 100 µM
TGI (DU-145 prostate): > 100 µM
TGI (OVCAR-4 ovarian): 91.1 µM
TGI (SK-OV-3 ovarian): > 100 µM
TGI (MDA-MB-435): > 100 µM
TGI (SNB-75 CNS): 90.5 µM
TGI (HOP-62 NSCLC): > 100 µM
TGI (KM12 colon): 87.5 µM

COc1ccc(-c2nc3c(nc2-c2ccc(OC)cc2)C(N)=NS(=O)(=O)N3)cc1
TGI (NCI-H226 lung): > 100 µM
TGI (SK-OV-3 ovarian): > 100 µM
TGI (SNB-75 CNS): > 100 µM
TGI (HOP-62 NSCLC): > 100 µM
TGI (KM12 colon): > 100 µM

Cc1[nH]c(=O)[nH]c(=O)c1/C=C/C(=O)NC(CO)CS(=O)CS(C)=O (centres undefined)
TGI (NCI-H226 lung): 77.3 µM
TGI (MCF7 breast): 125 µM
TGI (P388/ADR leukemia): 225 µM
TGI (OVCAR-4 ovarian): 14.9 µM
TGI (SK-OV-3 ovarian): 169 µM
TGI (SNB-75 CNS): 38.8 µM
TGI (HOP-62 NSCLC): 94.5 µM
TGI (KM12 colon): > 92.1 µM

CCN(CC)CC[n+]1ccc2c(C)c3[nH]c4ccc(O)cc4c3c(C)c2c1
GI50 (NCI-H226 lung): 0.631 µM
TGI (NCI-H226 lung): 6.64 µM and 3.58 µM
GI50 (MCF7 breast): 1.74 µM
TGI (MCF7 breast): 34.5 µM and 80.6 µM
GI50 (P388/ADR leukemia): 5.08 µM
TGI (P388/ADR leukemia): 64.7 µM and 91.7 µM
TGI (DU-145 prostate): 14.2 µM
TGI (OVCAR-4 ovarian): 23.4 µM and 30.4 µM
GI50 (SK-OV-3 ovarian): 5.94 µM
TGI (SK-OV-3 ovarian): 66.9 µM and 58.4 µM
TGI (MDA-MB-435): 23.1 µM
GI50 (SNB-75 CNS): 0.523 µM
TGI (SNB-75 CNS): 7.51 µM and 2.83 µM
TGI (HOP-62 NSCLC): 13.4 µM and 18.9 µM
GI50 (KM12 colon): 3.72 µM
TGI (KM12 colon): 20.1 µM and 17.6 µM

CCOC(=O)CNC(=O)C(Cc1ccccc1)NC(=O)C(C)(C)NC(=O)OCc1ccccc1 (centres undefined) (Cbz-[Aib]-[ξF]-Gly-OEt)
TGI (MCF7 breast): > 100 µM
TGI (DU-145 prostate): > 100 µM
TGI (OVCAR-4 ovarian): > 100 µM
TGI (MDA-MB-435): > 100 µM
TGI (HOP-62 NSCLC): > 100 µM

CCOC(=O)Cn1c2ccc(Br)cc2c2nc3ccccc3nc21
TGI (NCI-H226 lung): > 100 µM
TGI (DU-145 prostate): > 100 µM
TGI (MDA-MB-435): > 100 µM
TGI (SNB-75 CNS): > 100 µM
TGI (HOP-62 NSCLC): > 100 µM
TGI (KM12 colon): > 100 µM

C[Si](C)(C)c1ccc(-c2c3ccc(-c4cc(Br)cc(Br)c4)nc3nc3nc(-c4cc(Br)cc(Br)c4)ccc23)cc1
TGI (NCI-H226 lung): > 100 µM
TGI (MCF7 breast): > 100 µM
TGI (DU-145 prostate): > 100 µM
TGI (OVCAR-4 ovarian): > 100 µM
TGI (SK-OV-3 ovarian): > 100 µM
TGI (MDA-MB-435): > 100 µM
TGI (SNB-75 CNS): > 100 µM
TGI (HOP-62 NSCLC): > 100 µM
TGI (KM12 colon): > 100 µM

CC(C)CCCC(C)[C@H]1CC[C@H]2n3c(nc4ccccc43)CCC[C@]12C (some centres undefined)
TGI (NCI-H226 lung): 33.5 µM
TGI (MCF7 breast): 28.5 µM
TGI (DU-145 prostate): 58.5 µM
TGI (OVCAR-4 ovarian): 31.5 µM
TGI (SK-OV-3 ovarian): 30.9 µM
TGI (MDA-MB-435): 38.6 µM
TGI (SNB-75 CNS): 29.3 µM
TGI (HOP-62 NSCLC): 40.6 µM
TGI (KM12 colon): 52.5 µM

CCOC(=O)CCC(C(=O)OCC)n1nc2ccc(Nc3c(C)[n+]([O-])c4cc(F)c(OCC)cc4[n+]3[O-])cc2n1 (centres undefined)
TGI (NCI-H226 lung): > 100 µM
TGI (MCF7 breast): > 100 µM
TGI (DU-145 prostate): > 100 µM
TGI (OVCAR-4 ovarian): > 100 µM
TGI (SK-OV-3 ovarian): > 100 µM
TGI (MDA-MB-435): > 100 µM
TGI (SNB-75 CNS): 32.9 µM
TGI (HOP-62 NSCLC): 40.8 µM
TGI (KM12 colon): > 100 µM
